Where two headings read alike, the source gives them in different places.
Columns and labels:
[1] = molecular target: T1, KCC2 (Homo sapiens, UniProt Q9H2X9); conditions: cited from earlier work
T1 sequence (Q9H2X9 1-1139): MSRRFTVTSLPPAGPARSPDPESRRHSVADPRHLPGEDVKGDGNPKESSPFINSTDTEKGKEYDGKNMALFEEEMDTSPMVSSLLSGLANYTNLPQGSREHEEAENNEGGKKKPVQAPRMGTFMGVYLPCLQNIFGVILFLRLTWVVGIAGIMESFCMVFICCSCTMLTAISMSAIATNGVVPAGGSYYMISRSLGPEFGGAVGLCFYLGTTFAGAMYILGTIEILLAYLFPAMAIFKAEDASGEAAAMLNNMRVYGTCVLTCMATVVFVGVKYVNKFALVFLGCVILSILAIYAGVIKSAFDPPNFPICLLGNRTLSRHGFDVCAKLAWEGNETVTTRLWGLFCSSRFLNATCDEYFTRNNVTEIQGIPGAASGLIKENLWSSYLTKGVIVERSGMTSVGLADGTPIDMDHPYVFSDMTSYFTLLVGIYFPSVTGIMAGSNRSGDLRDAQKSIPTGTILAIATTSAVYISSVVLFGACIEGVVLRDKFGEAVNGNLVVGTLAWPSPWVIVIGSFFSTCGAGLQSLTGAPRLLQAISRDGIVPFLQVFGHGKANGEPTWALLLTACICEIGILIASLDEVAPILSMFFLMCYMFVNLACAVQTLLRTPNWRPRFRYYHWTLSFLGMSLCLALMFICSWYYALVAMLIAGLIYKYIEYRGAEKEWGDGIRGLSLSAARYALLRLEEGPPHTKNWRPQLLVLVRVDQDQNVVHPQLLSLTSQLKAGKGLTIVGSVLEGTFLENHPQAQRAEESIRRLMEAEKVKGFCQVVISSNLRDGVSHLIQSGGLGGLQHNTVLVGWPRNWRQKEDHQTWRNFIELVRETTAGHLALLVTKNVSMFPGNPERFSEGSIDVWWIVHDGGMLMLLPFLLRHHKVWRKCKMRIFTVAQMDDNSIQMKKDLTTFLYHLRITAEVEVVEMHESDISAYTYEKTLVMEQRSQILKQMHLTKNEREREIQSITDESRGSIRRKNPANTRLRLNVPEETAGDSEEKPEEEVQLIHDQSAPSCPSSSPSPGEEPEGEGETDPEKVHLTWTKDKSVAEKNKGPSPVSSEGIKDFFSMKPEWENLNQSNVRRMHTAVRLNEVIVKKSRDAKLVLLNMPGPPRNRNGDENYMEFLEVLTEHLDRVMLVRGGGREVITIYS

[2] = molecular target: T2, NKCC1 (Homo sapiens, UniProt P55011); conditions: cited from earlier work
T2 sequence (P55011 1-1212): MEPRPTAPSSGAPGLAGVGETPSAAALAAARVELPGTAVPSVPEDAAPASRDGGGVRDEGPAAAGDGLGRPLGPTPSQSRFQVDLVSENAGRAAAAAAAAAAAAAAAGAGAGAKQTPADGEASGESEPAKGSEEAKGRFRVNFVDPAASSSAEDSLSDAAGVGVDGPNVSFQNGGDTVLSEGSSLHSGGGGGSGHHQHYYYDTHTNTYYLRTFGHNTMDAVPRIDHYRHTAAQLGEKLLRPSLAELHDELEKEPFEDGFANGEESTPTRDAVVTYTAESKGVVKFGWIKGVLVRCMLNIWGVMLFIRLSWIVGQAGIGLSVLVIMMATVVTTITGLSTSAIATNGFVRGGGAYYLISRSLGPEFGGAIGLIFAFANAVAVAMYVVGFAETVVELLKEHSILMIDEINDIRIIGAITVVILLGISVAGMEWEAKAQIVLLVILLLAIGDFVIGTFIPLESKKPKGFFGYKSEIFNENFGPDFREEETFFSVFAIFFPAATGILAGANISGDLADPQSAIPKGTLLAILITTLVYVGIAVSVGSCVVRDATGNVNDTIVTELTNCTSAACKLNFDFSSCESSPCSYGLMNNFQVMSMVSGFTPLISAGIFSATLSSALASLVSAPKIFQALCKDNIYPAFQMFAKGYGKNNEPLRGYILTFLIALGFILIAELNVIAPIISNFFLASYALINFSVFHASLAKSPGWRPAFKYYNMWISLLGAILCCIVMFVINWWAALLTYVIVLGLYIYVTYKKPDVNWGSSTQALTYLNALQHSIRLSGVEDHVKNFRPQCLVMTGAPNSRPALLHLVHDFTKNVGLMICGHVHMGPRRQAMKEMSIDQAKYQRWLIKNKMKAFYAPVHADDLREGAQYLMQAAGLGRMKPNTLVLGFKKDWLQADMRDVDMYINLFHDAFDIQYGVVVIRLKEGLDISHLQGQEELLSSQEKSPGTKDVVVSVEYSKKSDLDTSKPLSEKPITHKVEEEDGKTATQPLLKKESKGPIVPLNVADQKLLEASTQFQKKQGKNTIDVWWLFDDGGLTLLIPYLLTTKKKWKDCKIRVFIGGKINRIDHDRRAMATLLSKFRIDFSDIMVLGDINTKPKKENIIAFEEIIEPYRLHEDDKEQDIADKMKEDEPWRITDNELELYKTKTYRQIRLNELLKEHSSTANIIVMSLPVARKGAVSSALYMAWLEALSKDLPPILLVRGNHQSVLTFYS

[3] = system: Pannexins, Connexins; conditions: cited from earlier work
[4] = system: Maxi-Anion Channel; conditions: cited from earlier work
[5] = system: rat hippocampal slices; assay: LDH release cell death assay in hippocampal slices; format: cell-based; conditions: for effect on veratridine-induced cell death (LDH release): 50 μM veratridine
[6] = system: cortical neurons in brain slices; assay: Neuronal swelling imaging assay in brain slices (cross sectional area of CoroNa-stained soma, two-photon); format: cell-based, rat; conditions: for magnitude of neuronal swelling: veratridine-induced, blockers present, without vs with pre-applied picrotoxin (100 μM)
[7] = system: voltage-dependent Cl^− current in layer 4 cortical neurons; assay: Whole-cell voltage clamp of depolarization-activated Cl- current; format: cell-based, rat; conditions: depolarization to −20 mV or greater; cocktail of channel blockers; GlyH-101 by dialysis
Method: Electrophysiology: Whole-cell recordings were performed in the presence of antagonists of GABAA (10 μM picrotoxin), AMPA/kainite (10 μM 6-cyano-7-nitoquinoxaline-2,3-dione—CNQX), and NMDA (2R-amino-5-phosphonovaleric acid—APV) receptors. 60 μM cadmium, 50 μM nickel and 100 μM 4AP (4-aminopyridine) were used to block voltage-gated calcium channels and A-type potassium channels. Whole-cell voltage-clamp recordings from cortical neurons were carried out at room temperature while the recording chamber was perfused with ACSF at 1-1.5 ml min-1. Recordings were made using a MultiClamp 700B amplifier controlled by Clampex 10.2 via a Digidata 1440A data acquisition system with 3-5M ? glass electrodes. The pipette solution containing (in m ? ): 108 CsCl, 8 TEA-Cl, 8 NaGluc, 1 CsEGTA, 4 K-ATP, 0.3 Na-GTP, 10 Hepes, 2MgCl2 (pH 7.2 with CsOH, 286 mosmol 1-1). Normal ACSF contained (in mM): 126 NaCl, 26 NaHCO3, 10 glucose, 2 MgCl2, 1.25 NaH2PO4, 2.5 KCl, 2.0 CaCl2 (pH 7.25, 310 mosmol 1-1). NaCl was replaced with 126 mM Na-isethionate in the low-chloride ACSF. Recordings where the series resistance varied more than 10% were rejected. Data were analyzed with Clampfit 10.0.
The opening of Na^+ permeable channels causes both [Na^+]i accumulation and neuronal depolarization. […] However progressive accumulation of extracellular K^+ could lead to further depolarization of the membrane. […]

[8] = system: CaCC; conditions: cited from earlier work
[9] = system: neuronal [Na^+]i in brain slices; assay: Neuronal [Na+]i by CoroNa Green fluorescence / two-photon FLIM; format: cell-based, rat
[10] = system: VRAC; conditions: cited from earlier work
[11] = molecular target: CLC-2 (Homo sapiens, UniProt P51788); conditions: cited from earlier work
[12] = 22-24 °C, antagonist bath applied and in puffing pipette, DIDS 250 μM, NPPB 200 μM, TTX 1 μM
[13] = pressure ejection, Cd2+, CNQX, picrotoxin present, d-APV with veratridine, TTX with NMDA

CLC-2, sequence (P51788 whole entry): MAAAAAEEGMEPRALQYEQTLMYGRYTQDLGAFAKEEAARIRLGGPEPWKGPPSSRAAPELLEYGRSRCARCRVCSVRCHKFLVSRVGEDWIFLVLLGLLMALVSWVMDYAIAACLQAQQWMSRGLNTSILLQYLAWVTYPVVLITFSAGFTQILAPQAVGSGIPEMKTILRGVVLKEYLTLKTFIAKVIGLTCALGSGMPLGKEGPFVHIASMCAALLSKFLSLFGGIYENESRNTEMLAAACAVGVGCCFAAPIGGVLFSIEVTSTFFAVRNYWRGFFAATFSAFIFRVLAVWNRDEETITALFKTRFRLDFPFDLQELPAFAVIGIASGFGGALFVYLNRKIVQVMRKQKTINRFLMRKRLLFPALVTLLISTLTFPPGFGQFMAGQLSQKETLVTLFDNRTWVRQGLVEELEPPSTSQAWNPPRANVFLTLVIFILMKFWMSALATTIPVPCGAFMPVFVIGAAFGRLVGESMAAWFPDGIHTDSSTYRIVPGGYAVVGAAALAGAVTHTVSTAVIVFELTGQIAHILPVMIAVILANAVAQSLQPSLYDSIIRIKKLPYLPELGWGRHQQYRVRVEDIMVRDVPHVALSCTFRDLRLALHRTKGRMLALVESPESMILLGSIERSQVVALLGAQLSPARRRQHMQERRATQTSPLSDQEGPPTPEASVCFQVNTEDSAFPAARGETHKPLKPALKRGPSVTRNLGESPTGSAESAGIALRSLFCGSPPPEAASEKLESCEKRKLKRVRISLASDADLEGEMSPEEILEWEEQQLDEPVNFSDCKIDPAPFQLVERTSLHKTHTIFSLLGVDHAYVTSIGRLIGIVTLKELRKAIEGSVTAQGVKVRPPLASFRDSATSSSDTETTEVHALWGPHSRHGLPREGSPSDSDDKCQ

CCCCNc1cc(C(=O)O)cc(S(N)(=O)=O)c1Oc1ccccc1 [Bumetanide, bumetanide]
Ki [1]: 25 to 50 µM | Ki [2]: ~0.1 µM

CC1(C)[C@@H](OC(=O)CCC(=O)O)CC[C@]2(C)[C@H]3C(=O)C=C4[C@@H]5C[C@@](C)(C(=O)O)CC[C@]5(C)CC[C@@]4(C)[C@]3(C)CC[C@@H]12 [CBX, carbenoxelone]
concentration (antagonist sensitivity of channel/transporter) [3]: 100 µM

[Gd+3] [Gd^3+]
concentration (antagonist sensitivity of channel/transporter) [4]: 30 to 50 µM

O=C(CNc1ccc2ccccc2c1)N/N=C/c1cc(Br)c(O)c(Br)c1O [GlyH-101]
effect on veratridine-induced cell death (LDH release) [5]: profoundly inhibited | effect on veratridine-induced neuronal swelling [6, 12]: profoundly inhibited | effect on non-inactivating Cl- current elicited by depolarization [7]: inhibit

O=C(O)c1cccnc1Nc1cccc(C(F)(F)F)c1 [NFA, niflumic acid]
concentration (antagonist sensitivity of channel/transporter) [8]: 50 to 100 µM

CN[C@H](CC(=O)O)C(=O)O [NMDA, N-Methyl-D-aspartic acid]
LDH release (cell death) on application ([5]; 15 min application, LDH after 90 min, veratridine 50 μM, NMDA 100 μM in 0 mM Ca2+, 2 mM EGTA, CNQX, picrotoxin, Cd2+ present): rapid and significant increase | neuronal cross sectional area after NMDAR activation ([6]; extracellular Ca2+ free solution (0 mM Ca2+, 2 mM EGTA), TTX, Cd2+, CNQX, picrotoxin present): 161.60±10.55 % of baseline | neuronal cross sectional area after NMDAR activation ([6]; extracellular Na+ replaced with NMDG (152 mM to 26 mM), normal Ca2+): 86.7 % of baseline | change in neuronal cell volume on application [6, 13]: increase in neuronal cell volume | change in neuronal [Na+]i on application [9, 13]: significant increase

O=C(O)c1cc([N+](=O)[O-])ccc1NCCCc1ccccc1 [NPPB]
effect on veratridine-induced cell death (LDH release) [5]: no effect | effect on NMDA-induced cell death (LDH release), Ca2+-independent ([5]; NMDA in Ca2+ free extracellular solution): blocked by DIDS but not NPPB | concentration (antagonist sensitivity of channel/transporter) [10]: 40 to 100 µM | concentration (antagonist sensitivity of channel/transporter) [8]: 100 µM | effect on veratridine-induced neuronal swelling [6, 12]: no protection | concentration (antagonist sensitivity of channel/transporter) [4]: 100 µM

NC1=N[C@H](O)[C@H]2[C@H]3O[C@]4(O)O[C@@H]([C@@H](O)[C@@]2(N1)[C@@H]4O)[C@]3(O)CO [TTX, Tetrodotoxin]
effect on veratridine-induced neuronal swelling [6]: blocked | effect on veratridine-induced [Na+]i increase [9]: blocked

[Zn] [Zinc]
concentration (antagonist sensitivity of channel/transporter) [11]: 100 µM

N[C@H](CCCP(=O)(O)O)C(=O)O [d-APV, 2R-amino-5-phosphonovaleric acid]
effect on NMDA-induced neuronal swelling ([6]; DIDS 250 μM, 500 μM, 1 mM, d-APV 100 μM): blocked | effect on NMDA-induced [Na+]i increase ([9]; CoroNa signal, d-APV 100 μM): blocked

COc1ccc(C(=O)O[C@H]2CC[C@@]3(C)[C@@H]4CC[C@H]5[C@]6(O)C[C@H](O)[C@@]7(O)[C@@H](CN8C[C@@H](C)CC[C@H]8[C@@]7(C)O)[C@]6(O)C[C@@]53O[C@]24O)cc1OC [veratridine]
magnitude of neuronal swelling [6]: 161.7% | [Na+]i (calibrated value, CoroNa FLIM) ([9]; throughout veratridine application): approximately 94.46±2.14 mM

picrotoxin
magnitude of neuronal swelling [6]: 146.9%

Source: patent publication US10472635B2, “Methods of treating brain edema” (priority 2015, dated 2019)
